According to patent publication US12168012B2, “NLRP3 inflammasome inhibitors” (Novartis AG, priority 2018, dated 2024):

Key:
[1] = test system: NF-kB-dependent TNF-α secretion; assay: TNF-α secretion assay (counterscreen); type: cell-based; conditions: Homo sapiens; THP-1 cells, Pam3CSK4-stimulated, 3 hours, HTRF
Description: Monocytic THP-1 cells were maintained according to providers' instructions in RPMI media as described above. Undifferentiated cells were plated at 50,000 cells per well in a 384-well flat-bottom cell culture plates (Greiner, #781986), and allowed to rest overnight. Experimental compounds were prepared and added as described above. TNF-α secretion was triggered by the addition of either 1 μg/mL LPS (Sigma, #L4391) or 100 ng/mL Pam3CSK4 (Invivogen, #tlrl-pms) depending on the experiment, and cells were incubated for 3 hours. 10 μL supernatant was removed, and TNF-α levels were monitored using an HTRF assay (CisBio, #62TNFPEC) according to manufacturers' instructions. Viability was monitored as described above.
IC50 values were calculated from the plot of percentage of inhibition versus the inhibitor concentration by a logistics fit according to: y=A2+(A1−A2)/(1+(x/IC50)^p) where y is the %-inhibition at the inhibitor concentration, x. A1 is the lowest inhibition value, i.e. 0%, and A2 the maximum inhibition value, i.e. 100%. The exponent, p, is the Hill coefficient. The curve fitting was conducted with an internally developed software suite. […]

[2] = test system: NLRP3 inflammasome; assay: IL-1β secretion assay; type: cell-based; conditions: Homo sapiens, THP-1, 3 h, PMA-differentiated THP-1 cells, 15 μM nigericin, HTRF
Description: 10 μL supernatant was removed, and IL-1p levels were monitored using an HTRF assay (CisBio, #62IL1PEC) according to manufacturers' instructions. Viability and pyroptosis was monitored with the addition of PrestoBlue cell viability reagent (Life Technologies, #A13261) directly to the cell culture plate.
IC50 values were calculated from the plot of percentage of inhibition versus the inhibitor concentration by a logistics fit according to: y=A2+(A1−A2)/(1+(x/IC50)^p) where y is the %-inhibition at the inhibitor concentration, x. A1 is the lowest inhibition value, i.e. 0%, and A2 the maximum inhibition value, i.e. 100%. The exponent, p, is the Hill coefficient. The curve fitting was conducted with an internally developed software suite.
NLRP3-dependent IL-1β secretion was stimulated in PMA-differentiated THP-1 cells by the addition of nigericin, and cytokines were measured in the […] after 3 hours. As discussed above, activation of the NLRP3 inflammasome requires both an NF-kB-dependent priming step and the addition of a NLRP3 activator.

Structure (SMILES)	IC50 [1] [nM]	IC50 [2] [nM]
CC(C)c1nn(CC(=O)Nc2cccnc2)c(=O)c2cc3sc(Cl)cc3n12 [Ex 2, 2-(2-Chloro-5-isopropyl-8-oxothieno[2′,3′:4,5]pyrrolo[1,2-d][1,2,4]triazin-7(8H)-yl)-N-(pyridin-3-yl)acetamide]	> 100000	–
CC(C)c1nn(CC(=O)Nc2cccnc2)c(=O)c2cc3sc(F)cc3n12 [Ex 5, 2-(2-Fluoro-5-isopropyl-8-oxothieno[2,3′:4,5]pyrrolo[1,2-d][1,2,4]triazin-7(8H)-yl)-N-(pyridin-3-yl)acetamide]	> 100000	–
CC(C)c1nn(CC(=O)N[C@@H]2CCCNC2)c(=O)c2cc3sc(Cl)cc3n12 [Ex 10, (R)-2-(2-Chloro-5-isopropyl-8-oxothieno[2′,3′:4,5]pyrrolo[1,2-d][1,2,4]triazin-7(8H)-yl)-N-(piperidin-3-yl)acetamide]	> 100000	–
CC(C)c1nn(CC(=O)N[C@@H]2CCCN(C)C2)c(=O)c2cc3sc(Cl)cc3n12 [Ex 17, (R)-2-(2-Chloro-5-isopropyl-8-oxothieno[2′,3′:4,5]pyrrolo[1,2-d][1,2,4]triazin-7(8H)-yl)-N-(1-methylpiperidin-3-yl)acetamide]	> 100000	–
CC(C)c1nn(CC(=O)N[C@H]2CCCN(C)C2)c(=O)c2cc3sc(Cl)cc3n12 [Ex 18, (S)-2-(2-Chloro-5-isopropyl-8-oxothieno[2′,3′:4,5]pyrrolo[1,2-d][1,2,4]triazin-7(8H)-yl)-N-(1-methylpiperidin-3-yl)acetamide]	> 100000	–
CC(C)c1nn(CC(=O)N[C@@H]2CCCN(C)C2)c(=O)c2cc3scnc3n12 [Ex 48, (R)-2-(5-Isopropyl-8-oxothiazolo[5′,4′:4,5]pyrrolo[1,2-d][1,2,4]triazin-7(8H)-yl)-N-(1-methylpiperidin-3-yl)acetamide]	> 100000	–
CN1CCC[C@@H](NC(=O)Cn2nc(C(C)(C)O)n3c(cc4sc(Cl)cc43)c2=O)C1 [Ex 60, (R)-2-(2-Chloro-5-(2-hydroxypropan-2-yl)-8-oxothieno[2′,3′:4,5]pyrrolo[1,2-d][1,2,4]triazin-7(8H)-yl)-N-(1-methylpiperidin-3-yl)acetamide]	> 100000	–
CC(C)c1nn(CC(=O)NC2CCOCC2)c(=O)c2cc3sc(Cl)cc3n12 [Ex 75, 2-(2-Chloro-5-isopropyl-8-oxothieno[2′,3′:4,5]pyrrolo[1,2-d][1,2,4]triazin-7(8H)-yl)-N-(tetrahydro-2H-pyran-4-yl)acetamide]	> 100000	–
CC(C)(O)c1nn(CC(=O)N[C@@H]2CCNC2)c(=O)c2cc3sc(Cl)cc3n12 [Ex 106, (R)-2-(2-Chloro-5-(2-hydroxypropan-2-yl)-8-oxothieno[2′,3′:4,5]pyrrolo[1,2-d][1,2,4]triazin-7(8H)-yl)-N-(pyrrolidin-3-yl)acetamide]	–	2180
CC(C)(O)c1nn(CC(=O)N[C@H]2CCNC2)c(=O)c2cc3sc(Cl)cc3n12 [Ex 107, (S)-2-(2-Chloro-5-(2-hydroxypropan-2-yl)-8-oxothieno[2′,3′:4,5]pyrrolo[1,2-d][1,2,4]triazin-7(8H)-yl)-N-(pyrrolidin-3-yl)acetamide]	–	4400
CC(C)c1nn(CC(=O)N[C@H]2C[C@H](O)C2)c(=O)c2cc3sc(Cl)cc3n12 [Ex 108, 2-(2-Chloro-5-isopropyl-8-oxothieno[2′,3′:4,5]pyrrolo[1,2-d][1,2,4]triazin-7(8H)-yl)-N-((1r,3r)-3-hydroxycyclobutyl)acetamide]	–	101
CC(C)c1nn(CC(=O)N[C@H]2C[C@@H](O)C2)c(=O)c2cc3sc(Cl)cc3n12 [Ex 109, 2-(2-Chloro-5-isopropyl-8-oxothieno[2′,3′:4,5]pyrrolo[1,2-d][1,2,4]triazin-7(8H)-yl)-N-((1s,3s)-3-hydroxycyclobutyl)acetamide]	–	221
CC(C)c1nn(CC(=O)NCCC2(O)CC2)c(=O)c2cc3sc(Cl)cc3n12 [Ex 110, 2-(2-Chloro-5-isopropyl-8-oxothieno[2′,3′:4,5]pyrrolo[1,2-d][1,2,4]triazin-7(8H)-yl)-N-(2-(1-hydroxycyclopropyl)ethyl)acetamide]	–	115
CC(C)c1nn(CC(=O)Nc2cc(C(F)F)ncn2)c(=O)c2cc3sc(Cl)cc3n12 [Ex 112, 2-(2-Chloro-5-isopropyl-8-oxothieno[2′,3′:4,5]pyrrolo[1,2-d][1,2,4]triazin-7(8H)-yl)-N-(6-(difluoromethyl)pyrimidin-4-yl)acetamide]	–	253
Cc1nc2c(cc3c(=O)n(CC(=O)N[C@H]4CC[C@H](C(=O)O)CC4)nc(C(C)C)n32)s1 [Ex 118, (1r,4r)-4-(2-(5-Isopropyl-2-methyl-8-oxothiazolo[5′,4′:4,5]pyrrolo[1,2-d][1,2,4]triazin-7(8H)-yl)acetamido)cyclohexane-1-carboxylic acid]	–	78.8
CC(C)c1nn(CC(=O)N[C@H]2CC[C@H](C(=O)O)CC2)c(=O)c2cc3scnc3n12 [Ex 119, (1r,4r)-4-(2-(5-Isopropyl-8-oxothiazolo[5′,4′:4,5]pyrrolo[1,2-d][1,2,4]triazin-7(8H)-yl)acetamido)cyclohexane-1-carboxylic acid]	–	40.5
CC(C)c1nn(CC(=O)N[C@H]2CC[C@H](C(=O)O)CC2)c(=O)c2cc3sc(F)cc3n12 [Ex 120, (1r,4r)-4-(2-(2-Fluoro-5-isopropyl-8-oxothieno[2′,3′:4,5]pyrrolo[1,2-d][1,2,4]triazin-7(8H)-yl)acetamido)cyclohexane-1-carboxylic acid]	–	17.2
O=C(Cn1nc(C2CC2)n2c(cc3sc(Cl)cc32)c1=O)N[C@H]1CC[C@H](C(=O)O)CC1 [Ex 121, (1r,4r)-4-(2-(2-Chloro-5-cyclopropyl-8-oxothieno[2′,3′:4,5]pyrrolo[1,2-d][1,2,4]triazin-7(8H)-yl)acetamido)cyclohexane-1-carboxylic acid]	–	44.1
CC(C)(O)c1nn(CC(=O)N[C@H]2CC[C@H](C(=O)O)CC2)c(=O)c2cc3sc(Cl)cc3n12 [Ex 122, (1r,4r)-4-(2-(2-Chloro-5-(2-hydroxypropan-2-yl)-8-oxothieno[2′,3′:4,5]pyrrolo[1,2-d][1,2,4]triazin-7(8H)-yl)acetamido)cyclohexane-1-carboxylic acid]	–	267
CC(C)c1nn(CC(=O)NC23CC(C(=O)O)(C2)C3)c(=O)c2cc3sc(Cl)cc3n12 [Ex 123, 3-(2-(2-Chloro-5-isopropyl-8-oxothieno[2′,3′:4,5]pyrrolo[1,2-d][1,2,4]triazin-7(8H)-yl)acetamido)bicyclo[1.1.1]pentane-1-carboxylic acid]	–	2080
CC(C)c1nn(CC(=O)N[C@@H]2CCCN(C3CCC3)C2)c(=O)c2cc3sc(Cl)cc3n12 [Ex 125, (R)-2-(2-Chloro-5-isopropyl-8-oxothieno[2′,3′:4,5]pyrrolo[1,2-d][1,2,4]triazin-7(8H)-yl)-N-(1-cyclobutylpiperidin-3-yl)acetamide]	> 33000	–
CC(C)(O)c1nn(CC(=O)N[C@@H]2CCCN(C3CC3)C2)c(=O)c2cc3sc(Cl)cc3n12 [Ex 126, (R)-2-(2-Chloro-5-(2-hydroxypropan-2-yl)-8-oxothieno[2′,3′:4,5]pyrrolo[1,2-d][1,2,4]triazin-7(8H)-yl)-N-(1-cyclopropylpiperidin-3-yl)acetamide]	–	0.6
CCN1CCC[C@@H](NC(=O)Cn2nc(C(C)(C)O)n3c(cc4sc(Cl)cc43)c2=O)C1 [Ex 132, (R)-2-(2-Chloro-5-(2-hydroxypropan-2-yl)-8-oxothieno[2′,3′:4,5]pyrrolo[1,2-d][1,2,4]triazin-7(8H)-yl)-N-(1-ethylpiperidin-3-yl)acetamide]	–	0.8
